Test results reported in PubChem BioAssay AID192 (DTP/NCI, 2004).
“And” between values parts separate entries of the source, which are not always exact repeats. Identical values can stand only once. Inconclusive results and toxic doses are left out. Rule for the calls: active = survival T/C of 150% or more; inactive = T/C below 125% in these data.

Test system: BDF1 mice, B16 melanoma ip, median survival T/C
Assay: NCI In Vivo Anticancer Drug Screen. Data for tumor model B16 Melanoma (intraperitoneal) in B6D2F1 (BDF1) mice
Conditions: endpoint: median survival time, higher = longer survival
Method in brief: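 Compounds were tested in mice carrying transplantable tumors. Survival or tumor size was recorded, and each value is the treated-group measurement (T) divided by that of the vehicle-treated control group (C).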

[1] = dose: 25.0 mg/kg/injection, schedule: Q01DX009 (ip), vehicle: Klucel (hydroxypropylcellulose) (HPC)
[2] = dose: 50.0 mg/kg/injection, schedule: Q01DX009 (ip), vehicle: Klucel (hydroxypropylcellulose) (HPC)
[3] = dose: 100.0 mg/kg/injection, schedule: Q01DX009 (ip), vehicle: Klucel (hydroxypropylcellulose) (HPC)
[4] = dose: 200.0 mg/kg/injection, schedule: Q01DX009 (ip), vehicle: Klucel (hydroxypropylcellulose) (HPC)
[5] = dose: 400.0 mg/kg/injection, schedule: Q01DX009 (ip), vehicle: Klucel (hydroxypropylcellulose) (HPC)
[6] = dose: 25.0 mg/kg/injection, schedule: Q04DX003 (ip), vehicle: Klucel (hydroxypropylcellulose) (HPC)
[7] = dose: 6.25 mg/kg/injection, schedule: Q01DX009 (ip), vehicle: saline with Tween-80
[8] = dose: 12.5 mg/kg/injection, schedule: Q01DX009 (ip), vehicle: saline with Tween-80
[9] = dose: 25.0 mg/kg/injection, schedule: Q01DX009 (ip), vehicle: saline with Tween-80
[10] = dose: 50.0 mg/kg/injection, schedule: Q01DX009 (ip), vehicle: saline with Tween-80
[11] = dose: 100.0 mg/kg/injection, schedule: Q04DX003 (ip), vehicle: Klucel (hydroxypropylcellulose) (HPC)
[12] = dose: 100.0 mg/kg/injection, schedule: Q01DX009 (ip), vehicle: saline with Tween-80
[13] = dose: 200.0 mg/kg/injection, schedule: Q01DX009 (ip), vehicle: saline with Tween-80
[14] = dose: 12.5 mg/kg/injection, schedule: Q01DX009 (ip), vehicle: saline
[15] = dose: 25.0 mg/kg/injection, schedule: Q01DX009 (ip), vehicle: saline

Measured: T/C

COc1cc(C(=O)N2CCOCC2)cc(OC)c1OC
inactive: [1] 110 % of control | [2] 102 % of control | [3] 92 % of control | [4] 97 % of control | [5] 102 % of control

CN(C)c1ccc2c(c1)C(Br)c1ccccc1-2 (stereo not given)
inactive: dose: 6.25 mg/kg/injection, schedule: Q04DX003 (ip), vehicle: Klucel (hydroxypropylcellulose) (HPC) 102 % of control | dose: 12.5 mg/kg/injection, schedule: Q04DX003 (ip), vehicle: Klucel (hydroxypropylcellulose) (HPC) 105 % of control | [6] 97 % of control

CCCCCCC(=O)NC1=C(N2CC2)C(=O)C(NC(=O)CCCCCC)=C(N2CC2)C1=O
inactive: dose: 6.25 mg/kg/injection, schedule: Q01DX009 (ip), vehicle: Klucel (hydroxypropylcellulose) (HPC) 110 % of control | dose: 12.5 mg/kg/injection, schedule: Q01DX009 (ip), vehicle: Klucel (hydroxypropylcellulose) (HPC) 115 % of control and 120 % of control | [1] 100 % of control

O=c1ccn(C2OC(CO)C(O)C2O)c(=O)[nH]1 (stereo not given)
inactive: dose: 16.0 mg/kg/injection, schedule: Q01DX009 (ip), vehicle: saline 100 % of control | dose: 32.0 mg/kg/injection, schedule: Q01DX009 (ip), vehicle: Klucel (hydroxypropylcellulose) (HPC) 98 % of control and 104 % of control | dose: 32.0 mg/kg/injection, schedule: Q01DX009 (ip), vehicle: saline 96 % of control and 101 % of control | dose: 64.0 mg/kg/injection, schedule: Q01DX009 (ip), vehicle: Klucel (hydroxypropylcellulose) (HPC) 99 % of control and 101 % of control | dose: 64.0 mg/kg/injection, schedule: Q01DX009 (ip), vehicle: saline 93 % of control and 98 % of control | dose: 128.0 mg/kg/injection, schedule: Q01DX009 (ip), vehicle: Klucel (hydroxypropylcellulose) (HPC) 103 % of control | dose: 128.0 mg/kg/injection, schedule: Q01DX009 (ip), vehicle: saline 101 % of control and 114 % of control | dose: 256.0 mg/kg/injection, schedule: Q01DX009 (ip), vehicle: Klucel (hydroxypropylcellulose) (HPC) 97 % of control and 103 % of control | dose: 256.0 mg/kg/injection, schedule: Q01DX009 (ip), vehicle: saline 100 % of control and 110 % of control | dose: 512.0 mg/kg/injection, schedule: Q01DX009 (ip), vehicle: Klucel (hydroxypropylcellulose) (HPC) 102 % of control and 108 % of control | dose: 512.0 mg/kg/injection, schedule: Q01DX009 (ip), vehicle: saline 105 % of control

CCCCCC/C=C\C(=O)O
inactive: [7] 94 % of control and 95 % of control | [8] 93 % of control and 104 % of control | [9] 93 % of control and 98 % of control | [10] 88 % of control

CC1(C)CC(O)(C(Cl)c2ccccc2)C(=O)c2ccccc21 (stereo not given)
inactive: [2] 103 % of control | [3] 95 % of control | [4] 94 % of control | [5] 90 % of control

C[Si](C)(C)c1cc(F)c(F)c(F)c1F
inactive: [11] 90 % of control | dose: 200.0 mg/kg/injection, schedule: Q04DX003 (ip), vehicle: Klucel (hydroxypropylcellulose) (HPC) 92 % of control | dose: 400.0 mg/kg/injection, schedule: Q04DX003 (ip), vehicle: Klucel (hydroxypropylcellulose) (HPC) 94 % of control

Cc1c2c(cc3c1[nH]c1ccccc13)C=NCC2
inactive: [10] 107 % of control | [12] 98 % of control | [13] 109 % of control

Cc1cc(Cl)ccc1NS(=O)(=O)c1cccc([N+](=O)[O-])c1
inactive: [12] 116 % of control | [13] 121 % of control | dose: 400.0 mg/kg/injection, schedule: Q01DX009 (ip), vehicle: saline with Tween-80 107 % of control

C=CCOCC(O)CN1CCC(C)CC1 (stereo not given)
inactive: [6] 88 % of control | dose: 50.0 mg/kg/injection, schedule: Q04DX003 (ip), vehicle: Klucel (hydroxypropylcellulose) (HPC) 101 % of control | [11] 107 % of control

Cc1ccc(NS(=O)(=O)c2ccccc2)c(C)c1
inactive: dose: 75.0 mg/kg/injection, schedule: Q01DX009 (ip), vehicle: Klucel (hydroxypropylcellulose) (HPC) 86 % of control | dose: 150.0 mg/kg/injection, schedule: Q01DX009 (ip), vehicle: Klucel (hydroxypropylcellulose) (HPC) 87 % of control | dose: 300.0 mg/kg/injection, schedule: Q01DX009 (ip), vehicle: Klucel (hydroxypropylcellulose) (HPC) 92 % of control

COc1ccccc1NC(N)=S
inactive: [1] 110 % of control | [2] 103 % of control | [3] 100 % of control

O=C1c2ccccc2C(=O)N1CC[P+](c1ccccc1)(c1ccccc1)c1ccccc1
inactive: dose: 1.56 mg/kg/injection, schedule: Q01DX009 (ip), vehicle: water 98 % of control | dose: 3.13 mg/kg/injection, schedule: Q01DX009 (ip), vehicle: water 100 % of control | dose: 6.25 mg/kg/injection, schedule: Q01DX009 (ip), vehicle: water 109 % of control | dose: 12.5 mg/kg/injection, schedule: Q01DX009 (ip), vehicle: water 107 % of control

Cc1ccc(C)c(NS(=O)(=O)c2ccc(Cl)cc2)c1
inactive: [3] 93 % of control | [4] 92 % of control

CCCCC(CC)COP(=O)(CC(CC)CCCC)OCC(CC)CCCC (stereo not given)
inactive: [7] 94 % of control | dose: 6.25 mg/kg/injection, schedule: Q04DX003 (ip), vehicle: saline 107 % of control | dose: 8.0 mg/kg/injection, schedule: Q04DX003 (ip), vehicle: saline with Tween-80 102 % of control | dose: 12.0 mg/kg/injection, schedule: Q04DX003 (ip), vehicle: saline with Tween-80 97 % of control | [8] 89 % of control | dose: 18.0 mg/kg/injection, schedule: Q04DX003 (ip), vehicle: saline with Tween-80 100 % of control | [9] 86 % of control | dose: 25.0 mg/kg/injection, schedule: Q04DX003 (ip), vehicle: saline 123 % of control

Nc1ccn([C@@H](C=O)O[C@@H](C=O)CO)c(=O)n1
inactive: dose: 6.25 mg/kg/injection, schedule: Q01DX009 (ip), vehicle: saline 100 % of control and 112 % of control | [14] 101 % of control and 102 % of control | [15] 91 % of control and 109 % of control | dose: 50.0 mg/kg/injection, schedule: Q01DX009 (ip), vehicle: saline 99 % of control and 103 % of control | dose: 100.0 mg/kg/injection, schedule: Q01DX009 (ip), vehicle: saline 107 % of control and 112 % of control | dose: 200.0 mg/kg/injection, schedule: Q01DX009 (ip), vehicle: saline 113 % of control

CCOc1ccc(NC(=O)c2cccc(C(=O)Nc3ccc(OCC)cc3)c2)cc1
inactive: [3] 103 % of control | [4] 93 % of control | [5] 86 % of control

COc1ccc(NC(=O)Nc2c(C)cc(C)cc2C)cc1
inactive: dose: 100.0 mg/kg/injection, schedule: Q01DX009 (ip), vehicle: gum acacia 96 % of control | dose: 200.0 mg/kg/injection, schedule: Q01DX009 (ip), vehicle: gum acacia 90 % of control | dose: 400.0 mg/kg/injection, schedule: Q01DX009 (ip), vehicle: gum acacia 101 % of control

Clc1ccc2nc(CI)c(CI)nc2c1
inactive: dose: 0.19 mg/kg/injection, schedule: Q01DX009 (ip), vehicle: saline with Tween-80 90 % of control | dose: 0.39 mg/kg/injection, schedule: Q01DX009 (ip), vehicle: saline with Tween-80 90 % of control | dose: 0.78 mg/kg/injection, schedule: Q01DX009 (ip), vehicle: saline with Tween-80 100 % of control | dose: 1.56 mg/kg/injection, schedule: Q01DX009 (ip), vehicle: saline with Tween-80 104 % of control | [7] 102 % of control | [8] 97 % of control | [9] 89 % of control and 97 % of control | dose: 25.0 mg/kg/injection, schedule: Q04DX003 (ip), vehicle: saline with Tween-80 100 % of control | dose: 50.0 mg/kg/injection, schedule: Q04DX003 (ip), vehicle: saline with Tween-80 100 % of control

CC1(C)N=C(N)N=C(N)N1c1ccc2ccccc2c1
inactive: [8] 90 % of control | dose: 22.0 mg/kg/injection, schedule: Q01DX009 (ip), vehicle: Klucel (hydroxypropylcellulose) (HPC) 87 % of control | [9] 94 % of control | dose: 33.0 mg/kg/injection, schedule: Q01DX009 (ip), vehicle: Klucel (hydroxypropylcellulose) (HPC) 91 % of control | [2] 119 % of control | [10] 98 % of control

OCCN1CCN(CCCN2c3ccccc3Sc3cccnc32)CC1
inactive: dose: 9.37 mg/kg/injection, schedule: Q01DX009 (ip), vehicle: saline 89 % of control | [14] 93 % of control | dose: 18.75 mg/kg/injection, schedule: Q01DX009 (ip), vehicle: saline 107 % of control | [15] 113 % of control | dose: 37.5 mg/kg/injection, schedule: Q01DX009 (ip), vehicle: saline 105 % of control | dose: 75.0 mg/kg/injection, schedule: Q01DX009 (ip), vehicle: saline 102 % of control
